Assay results: patent publication US8921358B2, “Apoptosis signal-regulating kinase 1 inhibitors” (Takeda Pharmaceutical Company Limited, priority 2008, dated 2014)

Molecular target: T1, human ASK1 (Homo sapiens, UniProt Q99683)
T1 construct: a 2.2 kb DNA fragment containing an ASK1 gene was recovered from the gel; made in house; host or cells: Sf-21 insect cells, recombinant baculovirus (pFASTBAC1, Bac-to-Bac)
T1 sequence (Q99683 649-1374 limits assumed): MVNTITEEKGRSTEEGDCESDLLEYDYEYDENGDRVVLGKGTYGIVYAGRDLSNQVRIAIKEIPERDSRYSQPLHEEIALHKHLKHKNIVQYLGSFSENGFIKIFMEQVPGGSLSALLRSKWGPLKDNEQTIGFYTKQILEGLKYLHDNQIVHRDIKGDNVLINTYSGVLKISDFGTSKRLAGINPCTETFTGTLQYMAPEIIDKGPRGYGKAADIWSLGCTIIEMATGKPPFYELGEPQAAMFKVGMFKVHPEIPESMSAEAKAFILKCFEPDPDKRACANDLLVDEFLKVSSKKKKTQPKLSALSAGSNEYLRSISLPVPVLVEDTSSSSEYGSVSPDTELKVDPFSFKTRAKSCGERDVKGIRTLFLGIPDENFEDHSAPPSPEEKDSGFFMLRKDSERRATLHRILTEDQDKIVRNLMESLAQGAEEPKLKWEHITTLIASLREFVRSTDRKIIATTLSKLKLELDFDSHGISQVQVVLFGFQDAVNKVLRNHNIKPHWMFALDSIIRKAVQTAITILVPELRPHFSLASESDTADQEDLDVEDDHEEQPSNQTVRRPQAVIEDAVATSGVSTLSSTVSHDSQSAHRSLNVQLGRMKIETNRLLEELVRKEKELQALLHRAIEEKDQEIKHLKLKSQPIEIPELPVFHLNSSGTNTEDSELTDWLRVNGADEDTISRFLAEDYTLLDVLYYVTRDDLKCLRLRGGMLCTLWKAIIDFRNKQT
Test: Scintillation assay measuring inhibition of ASK1 phosphorylation of myelin basic protein
Format: biochemical
Details: active ASK1 protein 30 ng, myelin basic protein 1 μg, [γ-32P]ATP, room temperature 30 min; values given as ranges; read-out: Enzyme Activity IC50
Description: Cloning of cDNA encoding human ASK1 was conducted by PCR using primers, 5′-[…] AGAGAAGGGGA-3′ (SEQ ID NO: 1) and 5′-[…]-3′ (SEQ ID NO: 2), from human heart cDNA library (Becton, Dickinson and Company). The PCR product was subjected to agarose gel (1%) electrophoresis, a 2.2 kb DNA fragment containing an ASK1 gene was recovered from the gel, and then digested with restriction enzymes, NotI and SalI, and inserted into a plasmid pFASTBAC1 (Invitrogen) to prepare a plasmid pFB-ASK1. The insert was verified by sequencing. Recombinant baculovirus was prepared according to the procedure of the Bac-to-Bac baculovirus expression system (Invitrogen).
Sf-21 cells were seeded to achieve 1×10^6 cells/mL in 100 mL of Sf-900 II SFM medium (Invitrogen) which contains 10% fetal calf serum and then cultured at 27° C. for 24 hrs. To express ASK1 in cells, 0.15 mL of the recombinant baculovirus virus stock was added to cells, and the then cultured for 60 hrs. The cells were separated from the culture solution by centrifugation at 3000 rpm for 10 min and washed once with PBS. The cells were suspended in 10 mL of lysis buffer (25 mM HEPES (pH 7.5), 1% Triton X, 130 mM NaCl, 1 mM EDTA, 1 mM DTT, 25 mM β-glycerophosphate, Protease inhibitor complete (Roche), 1 mM sodium orthovanadate) and ruptured by four times of treatment with a homogenizer (POLYTRON) at 20000 rpm for 30 seconds. Active ASK1 protein was purified from a supernatant obtained by centrifugal separation at 40000 rpm for 45 min using anti-FLAG M2 Affinity Gel (Sigma).
The test compounds (2.5 μl) dissolved in DMSO were added to wells containing 37.5 μl of the reaction solution (25 mM HEPES (pH 7.5), 10 mM magnesium acetate, 1 mM DTT) including 30 ng of active ASK1 protein and 1 μg of myelin basic protein (Wako), and incubated at room temperature for 5 min. To start the reaction, 10 μL of ATP solution (2.5 μM ATP, 0.1 μCi [γ-^32P]ATP) was added to wells. After incubating at room temperature for 30 min, the reaction was terminated by adding 50 μl of 20% TCA solution. The reaction solution was incubated at 4° C. for 30 min and an acid-insoluble fraction was transferred onto a GF/C filter (Packard) with Cell Harvester (Packard), and washed with 250 mM phosphoric acid. After drying at 45° C. for 60 min., 40 μL of Microscint 0 (Packard) was added and the radioactivity was measured with TopCount (Packard). The concentrations (IC50 value) of the test compounds necessary for 50% inhibition of kinase activity were calculated by PRISM 3.0 (Graphpad Software).
The enzyme activities of selected compounds of the present invention against ASK1 were determined using the assay disclosed in Example A and B. The resulted pIC50 values are reported in Table 1.

IC50 [nM] | Structure (SMILES)
< 100 | Cc1cc2nc(NC(=O)[C@@H]3C[C@H]3c3ccc(F)cc3)cc(-c3ccccc3)n2n1 (racemic) [Compound 359, trans-2-(4-Fluorophenyl)-N-(2-methyl-7-phenylpyrazolo[1,5-a]pyrimidin-5-yl)cyclopropanecarboxamide]
< 100 | CC(=O)NC1CCN(c2cc(NC(=O)[C@@H]3C[C@H]3c3ccc(F)cc3)nc3cc(C)nn23)CC1 (racemic) [Compound 361, N-(7-(4-acetamidopiperidin-1-yl)-2-methylpyrazolo[1,5-a]pyrimidin-5-yl)-2-(4-fluorophenyl)cyclopropanecarboxamide]
< 100 | Cc1cc2nc(NC(=O)[C@@H]3C[C@H]3c3ccc(F)cc3)cc(N3CCC(NC(N)=O)CC3)n2n1 (racemic) [Compound 362, 2-(4-fluorophenyl)-N-(2-methyl-7-(4-ureidopiperidin-1-yl)pyrazolo[1,5-a]pyrimidin-5-yl)cyclopropanecarboxamide]
< 100 | Cc1cc2nc(NC(=O)c3ccc(C(C)(C)C)cc3)cc(-c3cccc(CO)c3)n2n1 [Compound 1, 4-tert-butyl-N-(7-(3-(hydroxymethyl)phenyl)-2-methylpyrazolo[1,5-a]pyrimidin-5-yl)benzamide]
< 100 | CC(C)(C)c1ccc(C(=O)Nc2cc(-c3cccs3)n3nccc3n2)cc1 [Compound 2, 4-tert-butyl-N-(7-(thiophen-2-yl)pyrazolo[1,5-a]pyrimidin-5-yl)benzamide]
< 100 | Cc1cc2nc(NC(=O)c3ccc(C(C)(C)C)cc3)cc(-c3cccc(CCCO)c3)n2n1 [Compound 3, 4-(tert-butyl)-N-(7-(3-(3-hydroxypropyl)phenyl)-2-methylpyrazolo[1,5-a]pyrimidin-5-yl)benzamide]
< 100 | Cc1cc2nc(NC(=O)c3ccc(C(C)(C)C)cc3)cc(-c3ccc(F)c(CO)c3)n2n1 [Compound 4, 4-tert-butyl-N-(7-(4-fluoro-3-(hydroxymethyl)phenyl)-2-methylpyrazolo[1,5-a]pyrimidin-5-yl)benzamide]
< 100 | CC(C)(C)c1ccc(C(=O)Nc2cc(-c3cccc(CO)c3)n3nccc3n2)cc1 [Compound 5, 4-tert-butyl-N-(7-(3-(hydroxymethyl)phenyl)pyrazolo[1,5-a]pyrimidin-5-yl)benzamide]
< 100 | CC(C)(O)c1ccc(C(=O)Nc2cc(-c3cccc(CO)c3)n3nccc3n2)cc1 [Compound 6, N-(7-(3-(hydroxymethyl)phenyl)pyrazolo[1,5-a]pyrimidin-5-yl)-4-(2-hydroxypropan-2-yl)benzamide]
< 100 | CC(O)(c1ccc(C(=O)Nc2cc(-c3cccc(CO)c3)n3nccc3n2)cc1)C(F)(F)F (stereo not drawn) [Compound 7, N-(7-(3-(hydroxymethyl)phenyl)pyrazolo[1,5-a]pyrimidin-5-yl)-4-(1,1,1-trifluoro-2-hydroxypropan-2-yl)benzamide]
> 1000 | CC(C)(C)c1ccc(C(=O)Nc2cc(-c3ccc(S(C)(=O)=O)cc3)n3nccc3n2)cc1 [Compound 8, 4-tert-butyl-N-(7-(4-(methylsulfonyl)phenyl)pyrazolo[1,5-a]pyrimidin-5-yl)benzamide]
< 100 | COc1ccc(-c2cc(NC(=O)c3ccc(C(C)(C)C)cc3)nc3ccnn23)cc1 [Compound 9, 4-tert-Butyl-N-(7-(4-methoxyphenyl)pyrazolo[1,5-a]pyrimidin-5-yl)benzamide]
< 100 | CC(C)(C)c1ccc(C(=O)Nc2cc(-c3cccc(CCO)c3)n3nccc3n2)cc1 [Compound 10, 4-tert-butyl-N-(7-(3-(2-hydroxyethyl)phenyl)pyrazolo[1,5-a]pyrimidin-5-yl)benzamide]
< 100 | CC(C)(C)c1ccc(C(=O)Nc2cc(-c3cccc(CCCO)c3)n3nccc3n2)cc1 [Compound 11, 4-tert-Butyl-N-(7-(3-(3-hydroxypropyl)phenyl)pyrazolo[1,5-a]pyrimidin-5-yl)benzamide]
> 1000 | CC(=O)c1cccc(-c2cc(NC(=O)c3ccc(C(C)(C)C)cc3)nc3ccnn23)c1 [Compound 12, N-(7-(3-Acetylphenyl)pyrazolo[1,5-a]pyrimidin-5-yl)-4-tert-butylbenzamide]
